# Reference: publication PMC2990605 (British Journal of Cancer, 2010)
# Assay: Adverse events (CTCAEv3.0), worst grade per patient regardless of relation, and laboratory parameters
# Format: in vivo
# Details: human, in vivo
# Method: Toxicity was evaluated according to common toxicity criteria for adverse events (CTCAEv3.0). The MTD was defined as the dose level(s) at which at least two out of six patients developed DLT.
# Toxicity assessment, haematology and clinical biochemistry were performed at baseline and weekly during the study. Physical and ECOG performance status were recorded at baseline and before the next cycle.
smiles,measurement,setting,value
CC(C)C[C@@H](C(=O)N[C@H](C(=O)OC1CCCC1)c1ccccc1)[C@H](O)C(=O)NO [tosedostat],"Pollakiuria, patients with events, %",,5%
same,"Pruritus, CTCAE grade 1, patients",,5
same,"Pruritus, CTCAE grade 2, patients",,0
same,"Pruritus, CTCAE grade 3, patients",,1
same,"Pruritus, CTCAE grade 4, patients",,0
same,"Pruritus, patients with events, %",,27%
same,"Pulmonary embolism, CTCAE grade 1, patients",,0
same,"Pulmonary embolism, CTCAE grade 2, patients",,0
same,"Pulmonary embolism, CTCAE grade 4, patients",,0
same,"Pyrexia, CTCAE grade 1, patients",,4
same,"Pyrexia, CTCAE grade 2, patients",,2
same,"Pyrexia, CTCAE grade 3, patients",,0
same,"Pyrexia, CTCAE grade 4, patients",,0
same,"Pyrexia, patients with events, %",,27%
same,"Rash, CTCAE grade 1, patients",,9
same,"Rash, CTCAE grade 2, patients",,1
same,"Rash, CTCAE grade 3, patients",,2
same,"Rash, CTCAE grade 4, patients",,0
same,"Rash, patients with events, %",,55%
same,"Renal and urinary disorders, patients with events, %",,23%
same,"Respiratory, thoracic and mediastinal disorders, patients with events, %",,73%
same,SAEs considered disease-related,,13
same,"SAEs reported, total number",,19
same,"Skin and subcutaneous tissue disorders, patients with events, %",,100%
same,"Spinal cord compression, CTCAE grade 1, patients",,0
same,"Spinal cord compression, CTCAE grade 2, patients",,0
same,"Spinal cord compression, CTCAE grade 3, patients",,1
same,"Spinal cord compression, CTCAE grade 4, patients",,0
same,"Spinal cord compression, patients with events, %",,5%
same,"Tumour pain, CTCAE grade 1, patients",,0
same,"Tumour pain, CTCAE grade 2, patients",,1
same,"Tumour pain, CTCAE grade 3, patients",,2
same,"Tumour pain, CTCAE grade 4, patients",,0
same,"Tumour pain, patients with events, %",,14%
same,"Urinary tract infection, CTCAE grade 1, patients",,0
same,"Urinary tract infection, CTCAE grade 2, patients",,1
same,"Urinary tract infection, CTCAE grade 3, patients",,1
same,"Urinary tract infection, CTCAE grade 4, patients",,0
same,"Urinary tract infection, patients with events, %",,9%
same,"Vomiting, CTCAE grade 1, patients",,3
same,"Vomiting, CTCAE grade 2, patients",,2
same,"Vomiting, CTCAE grade 3, patients",,0
same,"Vomiting, CTCAE grade 4, patients",,0
same,"Vomiting, patients with events, %",,23%
same,drug-related adverse event: alopecia,,95%
same,drug-related adverse event: fatigue,,95%
same,drug-related adverse event: peripheral sensory neuropathy,,59%
same,drug-related adverse event: rash,,55%
same,"incidence and severity of neutropenia/leukopenia, anaemia, myalgia and nausea/vomiting",,not increased relative to paclitaxel alone
same,"nadir of median haemoglobin, WBC, neutrophils and lymphocytes in each cycle",,15 days
same,nadir of median platelets in each cycle,,8 days
same,patients with SAEs,,12
same,"γ-glutamyltransferase increased, CTCAE grade 1, patients",,0
same,"γ-glutamyltransferase increased, CTCAE grade 2, patients",,1
same,"γ-glutamyltransferase increased, CTCAE grade 3, patients",,1
same,"γ-glutamyltransferase increased, CTCAE grade 4, patients",,0
same,"γ-glutamyltransferase increased, patients with events, %",,9%
same,"Alanine aminotransferase increased, CTCAE grade 1, patients",21 days,1
same,"Alanine aminotransferase increased, CTCAE grade 2, patients",21 days,2
same,"Alanine aminotransferase increased, CTCAE grade 3, patients",21 days,0
same,"Alanine aminotransferase increased, CTCAE grade 4, patients",21 days,0
same,"Alanine aminotransferase increased, patients with events, %",21 days,14%
same,"Alopecia, CTCAE grade 2, patients",21 days,8
same,"Alopecia, CTCAE grade 3, patients",21 days,0
same,"Alopecia, CTCAE grade 4, patients",21 days,0
same,"Alopecia, patients with events, %",21 days,68%
same,"Anorexia, CTCAE grade 1, patients",21 days,4
same,"Anorexia, CTCAE grade 2, patients",21 days,0
same,"Anorexia, CTCAE grade 3, patients",21 days,0
same,"Anorexia, CTCAE grade 4, patients",21 days,0
same,"Anorexia, patients with events, %",21 days,18%
same,"Arthralgia, CTCAE grade 1, patients",21 days,5
same,"Arthralgia, CTCAE grade 2, patients",21 days,0
same,"Arthralgia, CTCAE grade 3, patients",21 days,0
same,"Arthralgia, CTCAE grade 4, patients",21 days,0
same,"Arthralgia, patients with events, %",21 days,23%
same,"Back pain, CTCAE grade 1, patients",21 days,2
same,"Back pain, CTCAE grade 2, patients",21 days,0
same,"Back pain, CTCAE grade 3, patients",21 days,0
same,"Back pain, CTCAE grade 4, patients",21 days,0
same,"Back pain, patients with events, %",21 days,9%
same,"Blood bilirubin, CTCAE grade 1, patients",21 days,0
same,"Blood bilirubin, CTCAE grade 2, patients",21 days,0
same,"Blood bilirubin, CTCAE grade 3, patients",21 days,0
same,"Blood bilirubin, CTCAE grade 4, patients",21 days,0
same,"Blood bilirubin, patients with events, %",21 days,0%
same,"Bronchitis, CTCAE grade 1, patients",21 days,0
same,"Bronchitis, CTCAE grade 2, patients",21 days,0
same,"Bronchitis, CTCAE grade 3, patients",21 days,0
same,"Bronchitis, CTCAE grade 4, patients",21 days,0
same,"Bronchitis, patients with events, %",21 days,0%
same,"Constipation, CTCAE grade 1, patients",21 days,3
same,"Constipation, CTCAE grade 2, patients",21 days,1
same,"Constipation, CTCAE grade 3, patients",21 days,0
same,"Constipation, CTCAE grade 4, patients",21 days,0
same,"Constipation, patients with events, %",21 days,18%
same,"Cough, CTCAE grade 1, patients",21 days,5
same,"Cough, CTCAE grade 2, patients",21 days,0
same,"Cough, CTCAE grade 3, patients",21 days,0
same,"Cough, CTCAE grade 4, patients",21 days,0
same,"Cough, patients with events, %",21 days,23%
same,"Cystitis, CTCAE grade 1, patients",21 days,0
same,"Cystitis, CTCAE grade 2, patients",21 days,0
same,"Cystitis, CTCAE grade 3, patients",21 days,0
same,"Cystitis, CTCAE grade 4, patients",21 days,0
same,"Cystitis, patients with events, %",21 days,0%
same,"Dehydration, CTCAE grade 1, patients",21 days,0
same,"Dehydration, CTCAE grade 2, patients",21 days,0
same,"Dehydration, CTCAE grade 3, patients",21 days,1
same,"Dehydration, CTCAE grade 4, patients",21 days,0
same,"Dehydration, patients with events, %",21 days,5%
same,"Diabetes mellitus, CTCAE grade 1, patients",21 days,0
same,"Diabetes mellitus, CTCAE grade 2, patients",21 days,0
same,"Diabetes mellitus, CTCAE grade 3, patients",21 days,1
same,"Diabetes mellitus, CTCAE grade 4, patients",21 days,0
same,"Diabetes mellitus, patients with events, %",21 days,5%
same,"Diarrhoea, CTCAE grade 1, patients",21 days,2
same,"Diarrhoea, CTCAE grade 2, patients",21 days,0
same,"Diarrhoea, CTCAE grade 3, patients",21 days,0
same,"Diarrhoea, CTCAE grade 4, patients",21 days,0
same,"Diarrhoea, patients with events, %",21 days,9%
same,"Dizziness, CTCAE grade 1, patients",21 days,4
same,"Dizziness, CTCAE grade 2, patients",21 days,1
same,"Dizziness, CTCAE grade 3, patients",21 days,0
same,"Dizziness, CTCAE grade 4, patients",21 days,0
same,"Dizziness, patients with events, %",21 days,23%
same,"Drug hypersensitivity, CTCAE grade 1, patients",21 days,0
same,"Drug hypersensitivity, CTCAE grade 2, patients",21 days,0
same,"Drug hypersensitivity, CTCAE grade 3, patients",21 days,0
same,"Drug hypersensitivity, CTCAE grade 4, patients",21 days,0
same,"Drug hypersensitivity, patients with events, %",21 days,0%
same,"Dry skin, CTCAE grade 1, patients",21 days,0
same,"Dry skin, CTCAE grade 2, patients",21 days,0
same,"Dry skin, CTCAE grade 3, patients",21 days,1
same,"Dry skin, CTCAE grade 4, patients",21 days,0
same,"Dry skin, patients with events, %",21 days,5%
